From patent US12049474B2, “Nucleoside prodrugs and uses related thereto” (Emory University, priority 2019, dated 2024) come the findings set out here.

For one data set, the target named is CYP3A4 (Homo sapiens (Human), UniProt P08684). The data set can be described thus: Fluorometric CYP450 enzyme inhibition assay, CYP3A4. In kind it is biochemical. Here is the method:
(§1) The CYP450 inhibition assays utilized microsomes from insect cells expressing human recombinant individual cDNA-expressed CYP isoforms 3A4 and 2D6, as well as the fluorogenic probe that produces fluorescent metabolite. Standard inhibitors were co-incubated with fluorogenic substrates and their inhibitory potential (IC50) was determined. Assay conditions in terms of CYP450 protein concentration and time of incubation were standardized, enzyme kinetics parameters of each fluorescent probe substrate were estimated and IC50 values of inhibitors were determined and validated on different days to check reproducibility.
(§2) A 100 mM sodium phosphate buffer was prepared and adjusted to pH 7.4. In a separate falcon tube, a 2× enzyme/substrate (E/S) solution was prepared in phosphate buffer. The final concentration of CYP2D6 (CORNING®) and […] (AMMC) was 10 nM and 4 μM, and CYP3A4 (CORNING®) and 7-benzyloxy-4-(trifluoromethyl) coumarin (BFC) was 20 nM and 40 μM, respectively. In a separate falcon tube, a 2×NADPH regenerating system (NRS) was prepared in phosphate buffer. The final concentration for each component in the assay was as follows: • CYP2D6 assay: 0.008 mM NADPH, 3.3 mM glucose 6-phosphate, 0.4 U of glucose-6-phosphate dehydrogenase per mL
Both enzymatic assays were conducted in a 96-well microtiter plate (Black, CORNING® COSTAR®) with a final volume of 100 μL. Preparation of the plate began with the addition of 74 μL of the E/S in the first well, and 50 μL to all subsequent wells (from 2-11). […] A 1:3 serial dilution of the test compound was conducted by removing 25 μL from the first well and diluting it with the second and so forth until the tenth row. Final concentrations yielded a range from 200 μM-0.01 μM. Well no. 11 contained no inhibitor, and well no. 12 contained no enzyme. Both were used as controls for background fluorescence. The plate was incubated for 30 min at 37° C. After incubation, the reaction was initiated by the addition of 50 μL of the 2×NRS to each well.
Immediately (within 1 min) the fluorescence was measured using a microplate reader (BIOTEK® Synergy Neo2). […] Data was exported and analyzed using Graph Pad Prism 7. […] The IC50 value was derived after the data was fitted on a 10-point curve using a four-parameter logistic regression model.

Data set [1] is described as follows: Metabolic stability assay in human liver microsomes (HLM). In kind it is in vitro ADME. Particulars: NADPH, sampled 0-120 min; for HLM t1/2: 3 μM test compound; for half-life at 3 µM: pH 7.4, 3 μM test compound, read-out: HLM t1/2. Here is the method: The LC-MS/MS analysis was performed using Agilent 1260 Infinity II HPLC, coupled with an Agilent G6460 triple quadrupole mass spectrometer (Agilent Technologies, USA). All the data were acquired employing Agilent 6460 Quantitative Analysis data processing software.
Reverse-phase HPLC separation for each compound was achieved either on an Agilent Porshell 120 EC-C8 column (2.1×50 mm, 2.7 μm), or on an Agilent Zorbax XDB C18 column (2.1×50 mm, 3.5 μm) with a mobile phase composed of methanol-water-formic acid or acetonitrile-water-formic acid (0.1%) at a flow rate of 0.5 mL/min (changes for some compounds). Each method was developed in the presence of an internal standard (ISTD) d5-7-ethoxy coumarin. The column temperature was maintained at 40° C. for most of the samples otherwise noted. The detection was operated in the Agilent JetStream electrospray positive ionization using multiple reaction monitoring mode (MRM).
Other MS conditions were as follows: dwell time 100 ms; gas flow 10 L/min; nebulizer pressure 45 psi; delta EMV 200 V; fragmentor voltage and collision energy for individual compounds vary.
Test compounds were dissolved in 100% DMSO or 100% MeOH to make 10 mM stock solutions. Verapamil (Sigma Aldrich) aided as a positive control and was dissolved in 100% DMSO to make 10 mM stock solutions. The 10 mM stock solution of test and control compounds were further diluted in potassium phosphate buffer (100 mM, pH 7.4) to 500 μM to ensure the organic solvent content was <0.2%. Human liver microsomes (HLMs) were purchased from Xenotech at 20 mg/mL. NADPH (Sigma Aldrich) 10 mM stocks were prepared in deionized water.
The HLM assay was prepared in a 1.5 mL Eppendorf tube with a final volume of 1100 μL for duplicate runs. Each reaction contained phosphate buffer (928.4 μL), liver microsomes (55 μL), and test compound resulting in a final concentration of 3 μM (6.6 μL of 500 μM). The reaction was initiated with 110 μL of 10 mM NADPH. Aliquots (100 μL) were removed in duplicate at 0, 15, 30, 60, 120 min (for prodrug compounds) and 0, 5, 10, 15, 30 min (verapamil, positive control compound) time intervals and quenched in cold […] of 100% methanol which contained internal standard (ISTD: d5-7-ethoxy coumarin 4 μM). Before centrifugation each of the aliquoted tubes were vortexed to make sure compounds were in the solution. The aliquots were centrifuged at 12,000 g for 5 min and the supernatant removed and placed in an LC-MS vial. Each time point was assessed using LC-MS and the area, based on the extracted ion, was integrated with respect to the ISTD. Positive controls were conducted at a final volume of 550 μL to give each time point in a single run. A no-NADPH negative control with test or control compound was performed in a single run (150 μL) at the longest time point. Controls were processed and analyzed like the test compounds. Each time point was run in duplicates followed by in-between blank washes to avoid the carryover and to equilibrate the column.
On the technique in general: Liver microsomes are vesicles of endoplasmic reticulum, rich in cytochrome P450 enzymes.

For the next data set, the target named is CYP2D6 (Homo sapiens (Human), UniProt P10635). Nature of the data set: biochemical. In kind it is biochemical. Here is the method:
as §1, §2
Both enzymatic assays were conducted in a 96-well microtiter plate (Black, CORNING® COSTAR®) with a final volume of 100 μL. Preparation of the plate began with the addition of 74 μL of the E/S in the first well, and 50 μL to all subsequent wells (from 2-11). The test compounds (1 μL) were dissolved in the first well to give the first row a final volume of 75 μL. A 1:3 serial dilution of the test compound was conducted by removing 25 μL from the first well and diluting it with the second and so forth until the tenth row. Final concentrations yielded a range from 200 μM-0.01 μM. Well no. 11 contained no inhibitor, and well no. 12 contained no enzyme. Both were used as controls for background fluorescence. The plate was incubated for 30 min at 37° C. After incubation, the reaction was initiated by the addition of 50 μL of the 2×NRS to each well.
Immediately (within 1 min) the fluorescence was measured using a microplate reader (BIOTEK® Synergy Neo2). CYP2D6 was monitored at Ex/Em=410/460 nm, and CYP3A4 monitored at Ex/Em=410/538 nm in kinetic mode that scanned every 5 min for 60 mins. Data was exported and analyzed using Graph Pad Prism 7. […] The IC50 value was derived after the data was fitted on a 10-point curve using a four-parameter logistic regression model.

In another data set the test system is HEK293 cells. Particulars: 50% cytotoxic concentration; italicized results: absence of human serum albumin.
Setting [2] is: human recombinant CYP3A4, BFC substrate, read-out: CYP450 IC50 3A4.
Setting [3] is: human recombinant CYP2D6, AMMC substrate, read-out: CYP450 IC50 2D6.

Where two headings read alike, the source gives them in different places.

Sequence of CYP3A4 (P08684 whole entry, canonical isoform): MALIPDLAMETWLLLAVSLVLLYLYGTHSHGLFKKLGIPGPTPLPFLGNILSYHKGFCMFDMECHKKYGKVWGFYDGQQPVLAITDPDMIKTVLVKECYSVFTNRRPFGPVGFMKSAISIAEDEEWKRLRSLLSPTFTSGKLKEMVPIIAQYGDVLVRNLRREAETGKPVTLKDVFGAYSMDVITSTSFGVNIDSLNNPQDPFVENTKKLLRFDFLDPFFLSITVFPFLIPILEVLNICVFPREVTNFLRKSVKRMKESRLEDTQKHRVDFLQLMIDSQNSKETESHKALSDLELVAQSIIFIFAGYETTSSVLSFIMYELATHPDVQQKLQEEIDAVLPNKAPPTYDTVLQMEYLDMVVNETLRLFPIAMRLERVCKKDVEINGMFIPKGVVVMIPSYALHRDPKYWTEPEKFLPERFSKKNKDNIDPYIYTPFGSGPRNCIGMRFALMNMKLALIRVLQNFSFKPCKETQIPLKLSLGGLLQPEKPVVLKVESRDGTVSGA
Sequence of CYP2D6 (P10635 whole entry): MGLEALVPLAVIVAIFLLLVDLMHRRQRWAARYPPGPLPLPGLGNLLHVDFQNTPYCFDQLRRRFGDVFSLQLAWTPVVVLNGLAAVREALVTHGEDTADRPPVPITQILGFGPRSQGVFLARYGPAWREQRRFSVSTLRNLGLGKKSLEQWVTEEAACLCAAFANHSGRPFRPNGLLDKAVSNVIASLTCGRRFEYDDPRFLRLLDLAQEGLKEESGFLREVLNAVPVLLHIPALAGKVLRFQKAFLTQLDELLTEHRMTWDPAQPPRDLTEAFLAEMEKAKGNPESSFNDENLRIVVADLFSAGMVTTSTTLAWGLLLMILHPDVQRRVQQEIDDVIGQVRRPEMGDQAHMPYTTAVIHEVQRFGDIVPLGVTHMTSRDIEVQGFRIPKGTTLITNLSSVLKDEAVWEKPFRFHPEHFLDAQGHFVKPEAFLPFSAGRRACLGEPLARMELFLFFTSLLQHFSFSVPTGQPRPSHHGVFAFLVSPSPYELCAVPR

For `C#CCCCCCCCCCCCCCCCCOP(=O)(O)CO[C@H](C)Cn1cnc2c(N)ncnc21.N` [Compound B1-1-024, Ammonium octadec-17-yn-1-yl ((((R)-1-(6-amino-9H-purin-9-yl)propan-2-yl)oxy)methyl)phosphonate], the IC50 (commonly the concentration that inhibits the measured activity by half) amounted to 18.7 µM on CYP3A4 (setting [2]) and 2.39 µM on CYP2D6 (setting [3]). Further, the “HLM t1/2” value in data set [1] is greater than 2 h. Moreover, in the data set with HEK293 cells, the CC50 (in general, the concentration that lowers cell viability or growth by half) was greater than 100 µM.

`C[C@H](Cn1cnc2c(N)ncnc21)OCP(=O)(O)OCCCOCCCCCCCCCCCCCCCC(F)(F)F.N` [NP-PD-158, Ammonium [(1R)-2-(6-aminopurin-9-yl)-1-methyl-ethoxy]methyl-[3-(16,16,16-trifluorohexadecoxy)propoxy]phosphinate]: the 50% inhibitory concentration (IC50) at CYP3A4 (setting [2]) and on CYP2D6 (setting [3]) was greater than 20 µM in each case. In addition, the “HLM t1/2” value in data set [1] was greater than 2 h. In addition, the CC50 with HEK293 cells is greater than 100 µM.

As for `C[C@H](Cn1cnc2c(N)ncnc21)OCP(=O)(O)OCCCCCCCCCCCCCCCCCCCC(F)(F)F.N` [NP-PD-105, ammonium [(1R)-2-(6-aminopurin-9-yl)-1-methyl-ethoxy]methyl-(20,20,20-trifluoroicosoxy)phosphinate], the 50% inhibitory concentration (IC50) at CYP3A4 (setting [2]) and on CYP2D6 (setting [3]) was greater than 20 µM each time. The “HLM t1/2” value in data set [1] is greater than 2 h. In the data set with HEK293 cells, this compound returned a CC50 of 72.4 µM.

Consider `C[C@H](Cn1cnc2c(N)ncnc21)OCP(=O)(O)OCCCCCCCCCCCCCCCCCC#CC(F)(F)F.N` [NP-PD-102, Ammonium [(1R)-2-(6-aminopurin-9-yl)-1-methyl-ethoxy]methyl-(20,20,20-trifluoroicos-18-ynoxy)phosphinate], for which the IC50 on CYP3A4 (setting [2]) and on CYP2D6 (setting [3]) was greater than 20 µM each time. Further, in data set [1], the “HLM t1/2” value is greater than 2 h. The compound further came in with a half-maximal cytotoxic concentration (CC50) in the data set on HEK293 cells of 78.7 µM.

`C#CCCCCCCCCCCCCCCCCCCOP(=O)(O)CO[C@H](C)Cn1cnc2c(N)ncnc21.N` [Compound B1-1-065, Ammonium icos-19-yn-1-yl (R)-(((1-(6-amino-9H-purin-9-yl)propan-2-yl)oxy)methyl)phosphonate]: the IC50 was greater than 50 µM at CYP3A4 (setting [2]) and 21.9 µM on CYP2D6 (setting [3]). Besides, the “HLM t1/2” value in data set [1] was greater than 2 h. The compound further gave a CC50 in the data set on HEK293 cells of 99.5 µM.

Turning to `C#CCCCCCCCCCCCCCCCCSCCCOP(=O)(O)CO[C@H](C)Cn1cnc2c(N)ncnc21.N` [BI-1-057, Ammonium 3-(octadec-17-yn-1-ylthio)propyl (R)-(((1-(6-amino-9H-purin-9-yl)propan-2-yl)oxy)methyl)phosphonate], the IC50 at CYP3A4 (setting [2]) was determined as 37 µM; on CYP2D6 (setting [3]), 20.2 µM. Moreover, in data set [1], the half-life at 3 µM is greater than 2 h.

For “Ammonium 3-((14-trimethylsilyl)tetradec-13-yn-1-yl)propyl(R)-(((1-(6-amino-9H-purin-9-yl)propan-2-yl)oxy)methyl)phosphonate [NP-PD-130]”, the concentration for half-maximal inhibition (IC50) on CYP3A4 (setting [2]) was greater than 20 µM; on CYP2D6 (setting [3]), 21.7 µM. The “HLM t1/2” value in data set [1] was greater than 2 h.

Turning to `N.[2H]C([2H])([2H])CCCCCCCCCCCCCCCOP(=O)(O)CO[C@H](C)Cn1cnc2c(N)ncnc21` [EJM-8-036, Ammonium hexadecyl-16,16,16-d3 (R)-(((1-(6-amino-9H-purin-9-yl)propan-2-yl)oxy)methyl)phosphonate], the figures for the IC50 at CYP3A4 and on CYP2D6 were 87.4 µM and 20.6 µM, respectively. The half-life at 3 µM in data set [1] was found to be 0.35 h.

As for `COC(=O)CCCCCCCCCCCCCCCSCCCOP(=O)(O)CO[C@H](C)Cn1cnc2c(N)ncnc21.N` [MD-1-124, Ammonium 3-((16-methoxy-16-oxohexadecyl)thio)propyl (R)-(((1-(6-amino-9H-purin-9-yl)propan-2-yl)oxy)methyl)phosphonate], the IC50 at CYP3A4 (setting [2]) amounted to 40.8 µM; at CYP2D6 (setting [3]), 19.2 µM. In addition, the half-life at 3 µM in data set [1] is 0.6 h.

Take `C[C@H](Cn1cnc2c(N)ncnc21)OCP(=O)(O)OCCCSCCCCCCCCCCCOc1ccccc1.N` [MD-1-223, Ammonium 3-((11-phenoxyundecyl)thio)propyl (R)-(((1-(6-amino-9H-purin-9-yl)propan-2-yl)oxy)methyl)phosphonate]: the IC50 on CYP3A4 (setting [2]) and at CYP2D6 (setting [3]) was greater than 20 µM in each case. Further, in data set [1], the half-life at 3 µM stood at 0.25 h.
